From US11253497B2, “Use of derivatives of polyunsaturated fatty acids as medicaments” (Lipopharma Therapeutics, S.L., priority 2009, dated 2022)

Experiments:
[1] = system: breast cancer cells MDA-MB-231; experiment: Growth of breast cancer cells MDA-MB-231; assay type: cell-based; details: 72 hours of incubation
In short: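 Cell counts taken with compound, mean of three independent experiments. Applies to MDA-MB-231.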

[2] = Lamellar-to-hexagonal (HII) transition temperature in DEPE model membranes by Differential Scanning Calorimetry; assay type: physicochemical; details: for Temperature of lamellar-to-hexagonal transition: DEPE membranes, DEPE:D-PUFA 10:1 (mol:mol); for Transition temperature (lamellar to HII): DEPE (4 mM), 200 μM compound, series A, control 64.5
In short: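 Lamellar-to-HII transition temperature of DEPE membranes measured by differential scanning calorimetry, with DEPE:fatty acid at 10:1 mol:mol. Control membranes contained no fatty acid.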

[3] = system: α-synuclein; experiment: Expression of α-synuclein in neuronal cultures (cells P19); assay type: cell-based; details: untreated cells 100%
[4] = system: Spontaneously Hypertensive Rats (SHR); experiment: Blood pressure of SHR rats (cuff-tail method); assay type: in vivo, rat; details: 200 mg/kg day p.o., 30 days, before treatment 214 mmHg
In short: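 SHR rats dosed orally at 200 mg/kg day for 30 days against water vehicle. At study end, blood pressure taken non-invasively by tail cuff and apoA-I assessed as gene expression by RT-PCR.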

[5] = system: COX-2; experiment: Expression of COX-2 in LPS-stimulated monocytes in culture; assay type: cell-based, human; details: positive control with LPS 100%
In short: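 Cultured monocytes stimulated with LPS; COX-2 protein level expressed as % inhibition relative to the LPS-only positive control (100%).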

CCC=CCC=CCC=CCCCCCCC(O)C(=O)[O-].[Na+] (centres unmarked) [183B1]
IC50 [1]: 267 µM
Temperature of lamellar-to-hexagonal transition [2]: 51.9 °C
Expression of α-synuclein [3]: 43%
Blood pressure [4]: 197 mm Hg
COX-2 protein levels (expression), percentages of inhibition compared to positive control [5]: 33%

CCC=CCC=CCC=CCC=CCC=CCCC(O)C(=O)O (centres unmarked) [205A1, 2-hydroxy-5,8,11,14,17-eicosapentaenoic acid]
IC50 ([1]; Homo sapiens, MDA-MB-231): 390 µM
Transition temperature (lamellar to HII) [2]: 47.9 °C
Expression of α-synuclein [3]: 35%
Blood pressure [4]: 193 mm Hg
COX-2 protein levels (expression), percentages of inhibition compared to positive control [5]: 31%

CCC=CCC=CCC=CCC=CCC=CCCC(O)C(=O)[O-].[Na+] (centres unmarked) [205B1]
IC50 [1]: 208 µM
Temperature of lamellar-to-hexagonal transition [2]: 48.3 °C
Expression of α-synuclein [3]: 41%
Blood pressure [4]: 187 mm Hg
COX-2 protein levels (expression), percentages of inhibition compared to positive control [5]: 39%

CCC=CCC=CCC=CCC=CCC=CCC=CCC(O)C(=O)O (centres unmarked) [226A1]
IC50 [1]: 187 µM
Transition temperature (lamellar to HII) [2]: 44.4 °C
Expression of α-synuclein [3]: 23%
Blood pressure [4]: 194 mm Hg
COX-2 protein levels (expression), percentages of inhibition compared to positive control [5]: 23%
